Measured values published in PubChem BioAssay AID1259407 (Chemical Carcinogenesis Research Information System (CCRIS), 2018).
Activity calls are given as the source filed them. No rule for the calls is given here.

System: CCRIS mutagenicity, Ames/micronucleus/aberration tests
Assay: CCRIS mutagenicity studies

Measured: mutagenic call

CC(=O)CN(CC(C)O)N=O (stereo not drawn)
active: Test System: AMES SALMONELLA TYPHIMURIUM, Strain/Indicator: TA100, Metabolic Activation: HAMSTER, LIVER, S-9, 3-METHYLCHOLANTHRENE, Method: PREINCUBATION active; positive | Test System: AMES SALMONELLA TYPHIMURIUM, Strain/Indicator: TA100, Metabolic Activation: HAMSTER, LIVER, S-9, PHENOBARBITAL, Method: PREINCUBATION active; positive | Test System: AMES SALMONELLA TYPHIMURIUM, Strain/Indicator: TA100, Metabolic Activation: HAMSTER, LIVER, S-9, Method: PREINCUBATION active; positive | Test System: AMES SALMONELLA TYPHIMURIUM, Strain/Indicator: TA100, Metabolic Activation: HUMAN, LIVER, S-9, Method: PREINCUBATION active; positive | Test System: AMES SALMONELLA TYPHIMURIUM, Strain/Indicator: TA100, Metabolic Activation: MONKEY, LIVER, S-9, Method: PREINCUBATION active; positive | Test System: AMES SALMONELLA TYPHIMURIUM, Strain/Indicator: TA100, Metabolic Activation: MOUSE, LIVER, S-9, 3-METHYLCHOLANTHRENE, Method: PREINCUBATION active; positive | Test System: AMES SALMONELLA TYPHIMURIUM, Strain/Indicator: TA100, Metabolic Activation: MOUSE, LIVER, S-9, PHENOBARBITAL, Method: PREINCUBATION active; positive | Test System: AMES SALMONELLA TYPHIMURIUM, Strain/Indicator: TA100, Metabolic Activation: MOUSE, LIVER, S-9, Method: PREINCUBATION active; positive | Test System: AMES SALMONELLA TYPHIMURIUM, Strain/Indicator: TA100, Metabolic Activation: RABBIT, LIVER, S-9, Method: PREINCUBATION active; positive | Test System: AMES SALMONELLA TYPHIMURIUM, Strain/Indicator: TA100, Metabolic Activation: RAT, LIVER, CYTOSOL, PCB, Method: PREINCUBATION active; positive | Test System: AMES SALMONELLA TYPHIMURIUM, Strain/Indicator: TA100, Metabolic Activation: RAT, LIVER, MICROSOMES AND CYTOSOL, PCB, Method: PREINCUBATION active; positive | Test System: AMES SALMONELLA TYPHIMURIUM, Strain/Indicator: TA100, Metabolic Activation: RAT, LIVER, MICROSOMES AND G6PDH, PCB, Method: PREINCUBATION active; positive | Test System: AMES SALMONELLA TYPHIMURIUM, Strain/Indicator: TA100, Metabolic Activation: RAT, LIVER, MICROSOMES, PCB, Method: PREINCUBATION active; positive | Test System: AMES SALMONELLA TYPHIMURIUM, Strain/Indicator: TA100, Metabolic Activation: RAT, LIVER, S-9 (HEATED), PCB, Method: PREINCUBATION active; positive | Test System: AMES SALMONELLA TYPHIMURIUM, Strain/Indicator: TA100, Metabolic Activation: RAT, LIVER, S-9, 3-METHYLCHOLANTHRENE, Method: PREINCUBATION active; positive | Test System: AMES SALMONELLA TYPHIMURIUM, Strain/Indicator: TA100, Metabolic Activation: RAT, LIVER, S-9, PCB, Method: PREINCUBATION active; positive | Test System: AMES SALMONELLA TYPHIMURIUM, Strain/Indicator: TA100, Metabolic Activation: RAT, LIVER, S-9, PHENOBARBITAL, Method: PREINCUBATION active; positive | Test System: AMES SALMONELLA TYPHIMURIUM, Strain/Indicator: TA100, Metabolic Activation: RAT, LIVER, S-9, Method: PREINCUBATION active; positive | Test System: AMES SALMONELLA TYPHIMURIUM, Strain/Indicator: TA100, Metabolic Activation: RAT, LIVER, S-9 WITHOUT NADP+, PCB, Method: PREINCUBATION active; positive | Test System: AMES SALMONELLA TYPHIMURIUM, Strain/Indicator: TA100, Method: PREINCUBATION active; positive | Test System: CHINESE HAMSTER V-79, Strain/Indicator: V-79/OUABAIN, Metabolic Activation: HAMSTER, HEPATOCYTES, Method: CELL-MEDIATED active; positive

[Be+2]
inactive: Test System: AMES SALMONELLA TYPHIMURIUM, Strain/Indicator: TA98, Metabolic Activation: NONE, Method: PREINCUBATION inactive; negative | Test System: AMES SALMONELLA TYPHIMURIUM, Strain/Indicator: TA98, Metabolic Activation: RAT, LIVER, S-9, (10%), Method: PREINCUBATION inactive; negative | Test System: AMES SALMONELLA TYPHIMURIUM, Strain/Indicator: TA100, Metabolic Activation: NONE, Method: PREINCUBATION inactive; negative | Test System: AMES SALMONELLA TYPHIMURIUM, Strain/Indicator: TA100, Metabolic Activation: RAT,LIVER, S-9 (10%), Method: PREINCUBATION inactive; negative

Cc1cccc(N)c1N
active: Test System: AMES SALMONELLA TYPHIMURIUM, Strain/Indicator: TA98, Metabolic Activation: RAT, LIVER, MICROSOMES, AROCLOR 1254, Method: PREINCUBATION active; positive | Test System: AMES SALMONELLA TYPHIMURIUM, Strain/Indicator: TA98, Metabolic Activation: RAT, LIVER, MICROSOMES, DIAMINOTOLUENE, Method: PREINCUBATION active; positive | Test System: AMES SALMONELLA TYPHIMURIUM, Strain/Indicator: TA98, Metabolic Activation: RAT, LIVER, MICROSOMES, Method: PREINCUBATION active; positive
